# Results reported in patent publication US8455448B2, “Myostatin isoform” (Myostin Therapeutics Pty Ltd, priority 2004, dated 2013).
# Tested on: rats bearing the AH130 tumour
# Assay: Muscle mass during cancer-induced cachexia, rats with AH130 tumour
# Type: in vivo, rat
# Conditions: 1 μg/g bodymass s.c. twice daily for 6 d, six hind limb muscles, FIG. 18
# Procedure: In this study, 21 male rats (three months of age) were allocated at random into three groups of seven. Group one was injected i.p. with sterile saline (non-cancer controls), groups two and three were inoculated i.p. with 100 μl of the AH130 tumour (Baracos et al 1995). Groups one and two were injected twice daily s.c. for six days with sterile saline, while group three was injected twice daily s.c. for six days with 1 μg/g bodymass with roMSV47. Rats were killed at day six and, at death, skeletal muscles (biceps femoris, gastrocnemius, tibialis anterior, quadriceps femoris, plantaris and soleus) were excised from the right hind limb of each rat and the wet mass expressed as a percent of the initial body mass on day 0.
# The ascites hepatoma 130 (AH130) was obtained as a gift from Dr Vicki Baracos (University of Alberta, Edmonton, Alberta, Canada) and stored in cryovials in liquid nitrogen in a solution of 50% DMSO and 10% BSA. An aliquot was retrieved and thawed and 1 ml was injected i.p. into each of three donor rats and allowed to grow for seven days. The rats were killed by CO2 asphyxiation followed by cervical dislocation. […] The volume of ascites in the peritoneal cavity was removed with a syringe and the volume recorded. Six muscles in the right hind limb (biceps femoris, gastrocnemius, soleus, plantaris, tibialis anterior and quadriceps femoris) were excised and their mass recorded. […]
substance,measurement,value
"roMSV47: 47 amino acid C-terminal mature ovine MSV fragment (SEQ ID NO: 50), recombinant from E. coli (IIFLEVYIQFCSILGEAVFKRQSKSIHFCQNFKIIACLCNTAAFRMK; Ovis aries)",reduction of generalised wasting of skeletal muscle induced by cancer,20%
